The results in this text go back to patent publication US9765060B2 (Gilead Sciences, Inc., priority 2014, dated 2017).

As usually defined, the IC50 is the point on the concentration scale where inhibition reaches its midpoint.

Each structure is given as a SMILES string.

PI3K isoform δ, sequence (O00329 whole entry, canonical isoform): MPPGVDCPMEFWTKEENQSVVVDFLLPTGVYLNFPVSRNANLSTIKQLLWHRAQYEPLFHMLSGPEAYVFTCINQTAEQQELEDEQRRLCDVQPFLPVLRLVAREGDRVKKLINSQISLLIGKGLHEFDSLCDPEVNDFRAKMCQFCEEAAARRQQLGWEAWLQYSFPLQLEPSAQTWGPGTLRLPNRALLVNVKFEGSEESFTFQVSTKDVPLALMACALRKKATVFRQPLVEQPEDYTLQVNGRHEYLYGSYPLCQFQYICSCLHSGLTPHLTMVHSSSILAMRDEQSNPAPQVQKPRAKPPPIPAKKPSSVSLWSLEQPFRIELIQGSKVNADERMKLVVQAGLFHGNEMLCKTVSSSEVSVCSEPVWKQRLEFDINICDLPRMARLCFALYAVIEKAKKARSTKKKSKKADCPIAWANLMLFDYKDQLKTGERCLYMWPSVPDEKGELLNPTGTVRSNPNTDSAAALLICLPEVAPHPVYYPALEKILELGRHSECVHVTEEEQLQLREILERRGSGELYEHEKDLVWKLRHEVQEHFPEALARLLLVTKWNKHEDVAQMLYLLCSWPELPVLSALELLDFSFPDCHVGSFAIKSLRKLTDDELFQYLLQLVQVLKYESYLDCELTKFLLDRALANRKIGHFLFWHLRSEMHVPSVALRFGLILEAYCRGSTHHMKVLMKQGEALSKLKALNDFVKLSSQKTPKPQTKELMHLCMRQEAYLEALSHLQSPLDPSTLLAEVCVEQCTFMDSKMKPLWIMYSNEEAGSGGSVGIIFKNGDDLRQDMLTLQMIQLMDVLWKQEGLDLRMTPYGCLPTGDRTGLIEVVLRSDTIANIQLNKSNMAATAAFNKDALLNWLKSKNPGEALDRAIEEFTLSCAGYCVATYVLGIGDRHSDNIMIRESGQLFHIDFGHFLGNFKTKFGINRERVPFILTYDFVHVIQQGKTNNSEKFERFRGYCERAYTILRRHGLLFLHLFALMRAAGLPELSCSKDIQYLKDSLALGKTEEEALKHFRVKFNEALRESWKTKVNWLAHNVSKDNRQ
PI3K isoform δ, sequence (P27986 whole entry partner, canonical isoform): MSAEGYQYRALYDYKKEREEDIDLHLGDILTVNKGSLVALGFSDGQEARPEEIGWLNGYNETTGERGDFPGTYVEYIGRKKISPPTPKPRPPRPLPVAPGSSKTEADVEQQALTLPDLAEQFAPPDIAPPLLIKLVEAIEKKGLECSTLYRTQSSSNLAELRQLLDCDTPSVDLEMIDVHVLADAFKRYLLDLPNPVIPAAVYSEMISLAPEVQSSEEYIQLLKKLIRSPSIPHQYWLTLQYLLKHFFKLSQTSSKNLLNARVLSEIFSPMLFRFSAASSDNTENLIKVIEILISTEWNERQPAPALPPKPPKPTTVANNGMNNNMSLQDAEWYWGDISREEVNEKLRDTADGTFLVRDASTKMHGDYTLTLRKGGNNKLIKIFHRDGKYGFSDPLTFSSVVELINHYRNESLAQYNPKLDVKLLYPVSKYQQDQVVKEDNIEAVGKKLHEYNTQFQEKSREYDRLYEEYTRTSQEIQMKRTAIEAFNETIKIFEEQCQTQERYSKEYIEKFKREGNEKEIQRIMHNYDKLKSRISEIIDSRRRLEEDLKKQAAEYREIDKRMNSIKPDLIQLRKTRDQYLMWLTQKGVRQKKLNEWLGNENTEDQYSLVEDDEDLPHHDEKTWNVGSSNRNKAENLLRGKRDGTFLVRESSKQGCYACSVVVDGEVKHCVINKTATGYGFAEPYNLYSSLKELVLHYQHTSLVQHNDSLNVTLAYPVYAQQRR

One experiment concerns the target PI3K isoform δ (Homo sapiens (Human), UniProt O00329). In words: TR-FRET assay of enzymatic activity of class I PI3K isoforms.
Details: not given
For orientation: TR-FRET usually uses a lanthanide donor and a delayed reading to cut background.
In turn, `CO[C@H]1C[C@@H](c2nc3cccc(Cl)c3c(=O)n2-c2cc(F)cc(F)c2)N(c2nc(N)nc(N)c2C#N)C1` [Compound 19, 2,4-diamino-6-((2S)-2-(5-chloro-3-(3,5-difluorophenyl)-4-oxo-3,4-dihydroquinazolin-2-yl)-4-methoxypyrrolidin-1-yl)pyrimidine-5-carbonitrile] gave an IC50 of 9 nM.
Still for that read-out and setting: next, `N#Cc1c(N)nc(N)nc1NC(c1nc2cccc(F)c2c(=O)n1-c1cccc(F)c1)C1CC1` (single isomer, unassigned) [Compound 15a, 2,4-diamino-6-((cyclopropyl(5-fluoro-3-(3-fluorophenyl)-4-oxo-3,4-dihydroquinazolin-2-yl)methyl)amino)pyrimidine-5-carbonitrile]: 6 nM.

The same experiment, now with this note: IC50 (nM) for PI3K isoform δ (Table 2), TR-FRET; 2× Km ATP, 2 μM PIP2; incubated for 30 minutes at 25° C.
Regarding `CS(=O)(=O)c1cccc2nc(C(Nc3nc(N)nc(N)c3C#N)C3CC3)n(-c3ccccc3F)c(=O)c12` (single isomer, unassigned) [Compound 17a-1], the IC50 stood at 6 nM.

The experiment is the same for the next values; noted with them: IC50 (nM) for PI3K isoform δ (Table 3), TR-FRET; 2× Km ATP, 2 μM PIP2; incubated for 30 minutes at 25° C.
Compound `C[C@H](Nc1nc(N)nc(Cl)c1C#N)c1nc2cccc(F)c2c(=O)n1-c1cc(F)cc(F)c1` [Compound 102, (S)-2-amino-4-chloro-6-((1-(3-(3,5-difluorophenyl)-5-chloro-4-oxo-3-phenyl-3,4-dihydroquinazolin-2-yl)ethyl)amino)pyrimidine-5-carbonitrile] had an IC50 of 30 nM.
`C[C@H](Nc1nc(N)nc(N)c1C#N)c1nc2cccc(OCCN(C)C)c2c(=O)n1-c1ccccc1` [Compound 27] yielded an IC50 of 57 nM.

The experiment is the same for the next values; noted with them: read-out: IC50 (nM) for PI3K isoform δ (Table 2); TR-FRET; 2× Km ATP, 2 μM PIP2; incubated for 30 minutes at 25° C.
In the case of `N#Cc1c(N)nc(N)nc1N[C@H](c1nc2c(F)ccc(C#N)c2c(=O)n1-c1ccccc1)C1CC1` [Compound 2a, (S)-2-(cyclopropyl((2,6-diamino-5-cyanopyrimidin-4-yl)amino)methyl)-8-fluoro-4-oxo-3-phenyl-3,4-dihydroquinazoline-5-carbonitrile], the IC50 is 10 nM.
For `N#Cc1c(N)nc(N)nc1N[C@H](c1nc2cccc(F)c2c(=O)n1-c1cc(F)cc(F)c1)C1CC1` [Compound 14a, (S)-2,4-diamino-6-((cyclopropyl(3-(3,5-difluorophenyl)-5-fluoro-4-oxo-3,4-dihydroquinazolin-2-yl)methyl)amino)pyrimidine-5-carbonitrile], the IC50 was determined as 19 nM.

Staying with this experiment, now noted: read-out: IC50 (nM) for PI3K isoform δ (Table 3); TR-FRET; 2× Km ATP, 2 μM PIP2; incubated for 30 minutes at 25° C.
With `N#Cc1c(Cl)nc(N)nc1N[C@H](c1nc2cccc(CCCN3CCCC3)c2c(=O)n1-c1ccccc1)C1CC1` [Compound 60, (S)-2-amino-4-chloro-6-((cyclopropyl(4-oxo-3-phenyl-5-(3-(pyrrolidin-1-yl)propyl)-3,4-dihydroquinazolin-2-yl)methyl)amino)pyrimidine-5-carbonitrile], the IC50 was determined as 6 nM.
For the compound `C[C@H](Nc1nc(N)nc(N)c1C#N)c1nc2cccc(CCC(N)=O)c2c(=O)n1-c1cc(F)cc(F)c1` [Compound 40, (S)-3-(2-(1-((2,6-diamino-5-cyanopyrimidin-4-yl)amino)ethyl)-3-(3,5-difluorophenyl)-4-oxo-3,4-dihydroquinazoline-5-yl)propanamide], the IC50 came out at 4 nM.
Take `C[C@H](Nc1nc(N)nc(N)c1Cl)c1nc2cccc(CCC(N)=O)c2c(=O)n1-c1cc(F)cc(F)c1` [Compound 42, (S)-3-(2-(1-((2,6-diamino-5-chloropyrimidin-4-yl)amino)ethyl)-3-(3,5-difluorophenyl)-4-oxo-3,4-dihydroquinazoline-5-yl)propanamide]: the IC50 stood at 20 nM.
`N#Cc1c(N)nc(N)nc1N1CCC[C@H]1c1nc2c(C#N)cccc2c(=O)n1-c1cccc(C(F)F)c1` [Compound 90, (S)-2-(1-(2,6-diamino-5-cyanopyrimidin-4-yl)pyrrolidin-2-yl)-3-(3-(difluoromethyl)phenyl)-4-oxo-3,4-dihydroquinazoline-8-carbonitrile]: the IC50 was 5 nM.
With `N#Cc1cc(F)cc(-n2c([C@@H]3CCCN3c3nc(N)nc(N)c3C#N)nc3cccc(Cl)c3c2=O)c1` [Compound 88, (S)-2,4-diamino-6-(2-(5-chloro-3-(3-cyano-5-fluorophenyl)-4-oxo-3,4-dihydroquinazolin-2-yl)pyrrolidin-1-yl)pyrimidine-5-carbonitrile], the IC50 was found to be 17 nM.
With `C[C@H](Nc1nc(N)nc(Cl)c1C#N)c1nc2cccc(Cl)c2c(=O)n1-c1ccccc1` [Compound 101, (S)-2-amino-4-chloro-6-((1-(5-chloro-4-oxo-3-phenyl-3,4-dihydroquinazolin-2-yl)ethyl)amino)pyrimidine-5-carbonitrile], the IC50 turned out to be 1 nM.
In the case of `C[C@H](Nc1nc(N)nc(N)c1C#N)c1nc2c(F)ccc(CCCN3CCCC3)c2c(=O)n1-c1ccccc1` [Compound 50, (S)-2,4-diamino-6-((1-(8-fluoro-4-oxo-3-phenyl-5-(3-(pyrrolidin-1-yl)propyl)-3,4-dihydroquinazolin-2-yl)ethyl)amino)pyrimidine-5-carbonitrile], the IC50 worked out at 1.3 nM.
On to `C[C@H](Nc1nc(N)nc(N)c1C#N)c1nc2cccc(CCCC3CCCCC3)c2c(=O)n1-c1ccccc1` [Compound 65, (S)-2,4-diamino-6-((1-(5-(3-cyclohexylpropyl)-4-oxo-3-phenyl-3,4-dihydroquinazolin-2-yl)ethyl)amino)pyrimidine-5-carbonitrile], for which the IC50 was 15 nM.
In the case of `N#Cc1c(N)nc(N)nc1N1CC[C@H]1c1nc2cccc(Cl)c2c(=O)n1-c1cc(F)cc(F)c1` [Compound 67, (S)-2,4-diamino-6-(2-(5-chloro-3-(3,5-difluorophenyl)-4-oxo-3,4-dihydroquinazolin-2-yl)azetidin-1-yl)pyrimidine-5-carbonitrile], the IC50 was 110 nM.
As for `N#Cc1c(N)nc(N)nc1N1C[C@H](NC(=O)CC2CC2)C[C@H]1c1nc2cccc(Cl)c2c(=O)n1-c1ccccc1` [Compound 114, N-((3R,5S)-5-(5-chloro-4-oxo-3-phenyl-3,4-dihydroquinazolin-2-yl)-1-(2,6-diamino-5-cyanopyrimidin-4-yl)pyrrolidin-3-yl)-2,2-cyclopropylacetamide], the IC50 was found to be 0.9 nM.
Consider `CC1CCN(C(=O)COc2cccc3nc([C@H](C)Nc4nc(N)nc(N)c4C#N)n(-c4ccccc4)c(=O)c23)CC1` [Compound 36, (S)-2,4-diamino-6-((1-(5-(2-(4-methylpiperidin-1-yl)-2-oxoethoxy)-4-oxo-3-phenyl-3,4-dihydroquinazolin-2-yl)ethyl)amino)pyrimidine-5-carbonitrile], for which the IC50 turned out to be 2 nM.
As for `N#Cc1c(N)nc(N)nc1N1CCC[C@H]1c1nc2c(Cl)cccc2c(=O)n1-c1cc(F)cc(F)c1` [Compound 85, (S)-2,4-diamino-6-(2-(8-chloro-3-(3,5-difluorophenyl)-4-oxo-3,4-dihydroquinazolin-2-yl)pyrrolidin-1-yl)pyrimidine-5-carbonitrile], the IC50 was found to be 10 nM.
Same read-out and setting: in the case of `C[C@H](Nc1nc(N)nc(N)c1C#N)c1nc2cccc(S(=O)(=O)CCO)c2c(=O)n1-c1cccc(F)c1` [Compound 78, (S)-2,4-diamino-6-((1-(3-(3-fluorophenyl)-5-((2-hydroxyethyl)sulfonyl)-4-oxo-3,4-dihydroquinazolin-2-yl)ethyl)amino)pyrimidine-5-carbonitrile] it was 9 nM; in that of `N#Cc1c(N)nc(N)nc1N[C@H](c1nc2c(F)ccc(CCCN3CCCC3)c2c(=O)n1-c1ccccc1)C1CC1` [Compound 58, (S)-2,4-diamino-6-((cyclopropyl(8-fluoro-4-oxo-3-phenyl-5-(3-(pyrrolidin-1-yl)propyl)-3,4-dihydroquinazolin-2-yl)methyl)amino)pyrimidine-5-carbonitrile], 3 nM.
Consider `C[C@@H]1C[C@@H](c2nc3cccc(Cl)c3c(=O)n2-c2ccccc2)N(c2nc(N)nc(N)c2C#N)C1` [Compound 94, 2,4-diamino-6-((2S,4R)-2-(5-chloro-4-oxo-3-phenyl-3,4-dihydroquinazolin-2-yl)-4-methylpyrrolidin-1-yl)pyrimidine-5-carbonitrile], for which the concentration for half-maximal inhibition (IC50) came out at 2 nM.
Same read-out and setting: in the case of `N#Cc1c(N)nc(N)nc1N[C@H](c1nc2cccc(CCCN3CCCC3)c2c(=O)n1-c1ccccc1)C1CC1` [Compound 56, (S)-2,4-diamino-6-((cyclopropyl(4-oxo-3-phenyl-5-(3-(pyrrolidin-1-yl)propyl)-3,4-dihydroquinazolin-2-yl)methyl)amino)pyrimidine-5-carbonitrile] it was 3 nM.
The same measure, in the same setting: in the case of `C[C@H](Nc1nc(N)nc(N)c1C#N)c1nc2cccc(CCCN3CCOC(C)(C)C3)c2c(=O)n1-c1ccccc1` [Compound 52, (S)-2,4-diamino-6-((1-(5-(3-(2,2-dimethylmorpholino)propyl)-4-oxo-3-phenyl-3,4-dihydroquinazolin-2-yl)ethyl)amino)pyrimidine-5-carbonitrile] it was 0.7 nM.
Take `N#Cc1c(N)nc(N)nc1N1C[C@@H](NC(=O)C(F)(F)F)C[C@H]1c1nc2cccc(Cl)c2c(=O)n1-c1ccccc1` [Compound 108, N-((3S,5S)-5-(5-chloro-4-oxo-3-phenyl-3,4-dihydroquinazolin-2-yl)-1-(2,6-diamino-5-cyanopyrimidin-4-yl)pyrrolidin-3-yl)-2,2,2-trifluoroacetamide]: the IC50 came out at 2 nM.
For the compound `CC1COCC(C)N1CCCc1cccc2nc([C@H](C)Nc3nc(N)nc(N)c3C#N)n(-c3ccccc3)c(=O)c12` (stereo partly drawn) [Compound 49, 2,4-diamino-6-(((1S)-1-(5-(3-(3,5-dimethylmorpholino)propyl)-4-oxo-3-phenyl-3,4-dihydroquinazolin-2-yl)ethyl)amino)pyrimidine-5-carbonitrile], the IC50 came out at 1.4 nM.
Turning to `Cc1ccccc1S(=O)(=O)c1cccc2nc([C@H](C)Nc3nc(N)nc(N)c3C#N)n(-c3cccc(F)c3)c(=O)c12` [Compound 81, (S)-2,4-diamino-6-((1-(3-(3-fluorophenyl)-4-oxo-5-(o-tolylsulfonyl)-3,4-dihydroquinazolin-2-yl)ethyl)amino)pyrimidine-5-carbonitrile], the IC50 came out at 6 nM.
